Earlier results, collected in article PMC3065210 (Inorganic Chemistry, 2011).
Read-outs that look alike come from different tables or passages of the source.

Tests used:
[1] = not given; remark: listed apart in the source

**Q.** For `O=C([O-])CN1CCCN2CCN(CCCN(CC(=O)[O-])CC2)CC1.[Cu+2]` [Cu-CB-TE2A], which acid inertness half-life (5 M HCl, 90 °C) is on record?
**A.** more than 6 d

**Q.** With `C1CNCCN2CCNCCN(C1)CC2.[Cu+2]` [Cu-CB-homocyclen] as the compound, how does the acid inertness half-life (1 M HCl, 30 °C) read?
**A.** 4.8 h

**Q.** Which results are given for `O=C([O-])CN1CCN2CCN(CC1)CCN(CC(=O)[O-])CC2.[64Cu+2]` [^64Cu-CB-DO2A]?
**A.** accumulation in the liver ([1]; 24 h p.i., previously published data (text says mice)): 0.024 ± 0.002 %ID/g; activity in blood ([1]; rats, 24 h, previously published data): 0.011 ± 0.004 %ID/g; tissue associated radioactivity in kidneys ([1]; rats, 24 h p.i., previously published data): 0.064 ± 0.007 %ID/g; liver clearance (percent reduction) ([1]; rats, at 22 or 24 h PI, from published data): 69.5%; kidney clearance ([1]; rats, out to 22 or 24 h PI, from published data): 95.6%
